Assay results reported in US20050113458A1, “Use of 1-aminocyclohexane derivatives to modify deposition of fibrillogenic a-beta peptides in amyloidopathies” (Forest Laboratories, Inc., priority 2003, published 2005).
Entries after “also recorded” stand apart in the source; their conditions may differ. Where two headings read alike, the source gives them in different places.

Key:
[1] = tested on: human neuroblastoma cells; details: Lahiri et al. 1998; cited from earlier work
sAPP = sAPP levels in conditioned media by Western blotting (mAb22C11); assay type: cell-based, human; details: SK-N-SH cells; for levels of sAPP in conditioned media: 0.25-1.0 μg/ml (1-4 μM)
Protocol: (§1) Cell culture and drug treatment. Human neuroblastoma (SK-N-SH, ATCC HTB-11, Biedler et al., Cancer Res. 1973, 33(11): 2643-52) cells were seeded at approximately 2×10^6 cells/well in a 6-well plate. Thereafter, drug concentrations of memantine were initiated at 0 μg/ml (control), 0.25 μg/ml (1 μM), 0.5 μg/ml (2 μM), and 1.0 μg/ml (4 μM) in MEM media supplemented with 1% FBS and 1× antibiotic. Treatment period was 12 days with a collection of conditioned media (CM) at 3 day intervals. Following collection, fresh memantine-media was added and the process repeated until harvest on day 12. The levels of both sAPP and Aβ40 were determined as described below.
Analysis of sAPP levels by Western blotting. Levels of total sAPP in the CM samples were measured by denaturing polyacrylamide gel electrophoresis (SDS-PAGE) followed by the Western immunoblotting using mAb22C11 antibody. Samples were loaded on the gel at equal volume of conditioned media (30 μg protein/sample). The density of specific APP bands in the blot was quantified using the NIH Image software. Levels of APP were expressed as a percent of controls. Levels of the constitutively expressed β-actin protein were measured in parallel as an internal control.
(§2) Data Analysis. Data were analyzed from 3-6 independent cell culture experiments. Statistical analysis (e.g., analysis of variance and post-hoc tests for multiple comparisons) was performed using the SPSS program (Statistical Products and Services Solutions, Chicago, Ill.) and included the mean and the standard error of the mean.

rat hippocampal cells = details: Miguel-Hidalgo et al. 2002; cited from earlier work
APP/PS1 and NT mice [2] = assay: Morris water maze (spatial learning and memory); assay type: in vivo; details: 30 mg/kg/day; for time spent in the target area, probe trial: sixth day, 60 s, mean±sem
Excerpt: (§3) Transgenic mice expressing either human PS1 harboring the familial AD-linked A246E mutation or chimeric mouse/human APP695 harboring a human Aβ domain and mutations (K595N, M596L) linked to Swedish familial AD pedigrees (APPswe) (Borchelt et al., 1997) were back-crossed to C57BL/6J for 16 generations and then crossed together to generate double transgenic mice co-expressing both transgenes. In all tests, 8-month-old double-mutant male mice (APP/PS1; n=45) and their non-transgenic littermates (NT; n=36, ) were used. […] The therapeutic dose of memantine was defined as the dose producing a steady-state plasma drug level of ˜1 μM and was determined in 8-month-old male C57 BL/6J mice (background strain of the transgenic mice).
Memantine treatment: Based on the pilot study, the dose of 30 mg/kg/day (see Results section for details) was chosen for the behavioral study and administered in drinking water for 3 weeks. Memantine was administered to 23 APP/PS1 mice and 19 NT mice. The placebo group (APP/PS1: n=22; NT: n=17) received drinking water without memantine. Behavioral testing started 2 weeks after treatment onset and continued for one week. After two weeks of treatment, mice were tested for exploratory activity, isolation-induced aggression, and performance in the Morris water maze.
Morris water maze: The Morris water maze was used to measure spatial learning and memory. The apparatus was a black plastic pool with a diameter of 120 cm. A black escape platform (square, 14×14 cm) was located 1.0 cm below (hidden) the water surface. The temperature of the water was kept constant throughout the experiment (20±0.5° C.), and a 10-min recovery period was allowed between the training trials. First, the mice were pre-trained to find and climb onto the platform for two days by using an alley (1 m×14 cm×25 cm) leading to the platform located 1 cm below the water. The training consisted of 8 consecutive days of testing, with 5 trials per day. […] During the first 5 days of testing the mice were trained with a hidden platform. The platform location was kept constant and the starting position varied between four constant locations at the pool rim. Mice were placed in the water with their nose pointing towards the wall at one of the starting points in a random manner. On the sixth day, the platform was removed and the mice were allowed to swim for 60 s to determine their search bias. On testing days 7 and 8, a black curtain was hung around the swimming pool in order to conceal all extra-maze visual cues. […] Timing of the latency to find the submerged platform was started and ended by the experimenter. A computer connected to an image analyzer (HVS Image®, Hampton, UK) monitored the swim pattern. During the water maze training, we measured swimming speed and latency to find the platform. The wall-swimming tendency (thigmotaxis) was assessed by dividing the pool into 3 concentric zones of equal surface area and calculating the time spent in the outer zone. Search bias during the probe trial was measured by calculating the time the mice spent in the vicinity of where the platform was previously located. We defined this as a target area centered on the platform with a diameter of 30 cm. This target area comprised 6.25% of the total surface area, thus a random swim for 60 s in the pool would yield a dwell time of 3.75 s in the target area during the probe trial.
(§4) Statistical analysis All statistical analyses were performed using SPSS for Windows software, version 11.5.1 (SPSS, Chicago, Ill.). The effects of genotype, treatment, training day, and their interaction with the behavioral parameters of exploratory activity and performance in the Morris water maze were evaluated by analysis of variance (ANOVA) for repeated measures. Attack latency from the isolation-aggression test was analyzed by two-way ANOVA with genotype and treatment as factors.

[3] = Dose-finding pilot study: steady-state plasma concentration of memantine; assay type: in vivo, male C57BL/6J mice; details: male, C57BL/6J, mouse, mean±SEM, read-out: steady-state plasma level
Excerpt: as §3
Dose-finding pilot study: A pilot study was undertaken to determine the therapeutic dose of memantine [i.e., the dose of memantine producing a steady-state plasma drug level of around 1 μM, which several preclinical and clinical studies have indicated is therapeutic (Kornhuber and Quack, 1995; Zajaczkowski et al., 1996)] to be used in subsequent experiments in transgenic mice. Memantine (Forest Research Institute, Jersey City, N.J.) was administered orally (via drinking water) to male C57BL/6J mice at the doses of 10 mg/kg/day (n=10), 30 mg/kg/day (n=10) and 100 mg/kg/day (n=10) for 4 weeks. The placebo group (n=10) had drinking water without memantine. Blood samples were taken from the femoral vein 4 weeks after the initiation of drug treatment to determine the steady-state plasma concentration of memantine. Plasma samples were analyzed at Merz Pharmaceuticals GmbH (Frankfurt am Main, Germany) using a gas chromatograph system coupled with a mass selective detector (Kornhuber and Quack., 1995).

[4] = humans; Kornhuber and Quack 1995; cited from earlier work
Aβ40 = Aβ40 levels in conditioned media by sandwich ELISA; assay type: cell-based, human; details: SK-N-SH cells; for levels of Aβ40 in conditioned media: 0.25-1.0 μg/ml (1-4 μM)
Protocol: as §1
Analysis of Aβ levels by ELISA. Quantitative solid phase sandwich ELISA (enzyme linked immunosorbent assay) was used to measure Aβ40 levels in the conditioned media samples. Specifically, an affinity purified anti-human Aβ (35-40) rabbit IgG was used as a capture antibody, and affinity purified HRP-conjugated anti-human Aβ (11-28) rabbit IgG Fab was used as a detection antibody (both reagents from IBL (Japan)). Since an antibody against Aβ (11-28) was used as a secondary conjugated antibody, human Aβ40 variants which cleaved at N-terminus sites were also detectable in the ELISA assay. TMB was used as a coloring agent (Chromogen). The measurement range was from 15.6 to ˜1,000 pg/ml (3.6 to ˜230.9 pmol/l).
as §2

[5] = tested on: human neuroblastoma cells SK-N-SH; assay: Cellular toxicity, LDH assay; assay type: cell-based; details: 1-4 μM
Protocol: as §1
Cell Toxicity and Viability Assays. Cell viability in control and memantine-treated samples was measured using MTT (the tetrazolium dye 3-[4,5-dimethylthiazol-2-yl]-2,5-diphenyltetrazolium bromide). Cellular toxicity was measured uding lactate dehydrogenase (LDH) (Sigma, St. Louis, Mo.) assay.

Fisher 344 rats = details: 30 mg/kg/day for 8 weeks, Barnes et al. 1996; cited from earlier work
APP/PS1 and NT mice [6] = assay: Isolation-induced aggression test; assay type: in vivo; details: 30 mg/kg/day in drinking water
Protocol: Isolation-induced aggression: All test mice (‘residents’) had been housed in individual cages for at least 3 weeks prior to the start of this test. ‘Intruders’ were NT male C57B1/J6 mice, 16-20 weeks old at the time of testing, housed in groups of 4-8 since weaning. A randomly chosen intruder was placed in the resident's cage, and aggression of the resident was assessed by measuring attack latency, i.e. the time in seconds between the introduction of the intruder into the cage and the first attack by the resident. […]
Statistical analysis All statistical analyses were performed using SPSS for Windows software, version 11.5.1 (SPSS, Chicago, Ill.). The effects of genotype, treatment, training day, and their interaction with the behavioral parameters of exploratory activity and performance in the Morris water maze were evaluated by analysis of variance (ANOVA) for repeated measures. […]

APP/PS1 and NT mice [7] = assay: Exploratory activity (TruScan automated activity monitor); assay type: in vivo; details: 30 mg/kg/day in drinking water, 10-min recording
Excerpt: as §3, with “mice). […]” for “mice).”
Exploratory activity: TruScan® (Coulbourn Instruments, CO, USA) automated activity monitor based on infrared photo detection was used for monitoring exploratory activity. […] Activity was measured for 10 min in two separate sessions separated by 48 h.
as §4, with “Attack latency from the isolation-aggression test was analyzed by two-way ANOVA with genotype and treatment as factors.” left out

Nc1c2c(nc3ccccc13)CCCC2 [tacrine]
cellular damage or toxicity [1]: absence of any detectable cellular damage or toxicity | release of Aβ40 [1]: reduce | release of Aβ42 [1]: reduce | release of sAPPα [1]: reduce | release of total Aβ [1]: reduce

CC12CC3CC(C)(C1)CC(N)(C3)C2 [memantine, 1-amino-3,5-dimethyl adamantane]
sAPP levels in the conditioned media (sAPP; 1 μM for 6-12 days): trend towards a decrease | levels of sAPP in conditioned media (sAPP; day 3): no significant changes | levels of sAPP in conditioned media (sAPP; day 6): dose-dependent decrease | levels of sAPP in conditioned media (sAPP; day 9 and day 12): persisting or further decreasing | sAPP levels in the conditioned media (sAPP; 2-4 μM for 6-12 days): significantly decreased | Aβ-induced apoptosis (rat hippocampal cells): protected | finding the visible platform (APP/PS1 and NT mice [2]; APP/PS1 mice (FIG. 11B), days 7-8): did not show a significant improvement | time spent in the outer zone of the pool (thigmotaxis) (APP/PS1 and NT mice [2]; APP/PS1 mice, p=0.04): significantly reduced | time spent in the target area, probe trial (APP/PS1 and NT mice [2]; APP/PS1 mice): 39.0 ± 2.0 s | escape latency, hidden platform (APP/PS1 and NT mice [2]; APP/PS1 mice, vs placebo-treated APP/PS1 mice, p=0.02): reduced | time spent in the outer zone of the pool (thigmotaxis) (APP/PS1 and NT mice [2]; NT mice, p=0.004): significantly reduced | escape latency (performance), hidden platform (APP/PS1 and NT mice [2]; NT mice, p=0.09 (not significant)): trend towards improved performance | time spent in the target area, probe trial (APP/PS1 and NT mice [2]; NT mice): 36.1 ± 2.6 s | performance level, hidden platform, compared with placebo-treated NT mice (APP/PS1 and NT mice [2]; memantine-treated APP/PS1 mice, Tukey's post-hoc p=0.96): did not differ | concentration at 4 weeks ([3]; 10 mg/kg/day oral (drinking water)): 490 ± 60 nM | concentration at 4 weeks ([3]; 30 mg/kg/day oral (drinking water)): 1140 ± 70 nM | concentration at 4 weeks ([3]; 100 mg/kg/day oral (drinking water)): 5540 ± 400 nM | therapeutically effective circulating concentration [4]: approximately 1 μM | levels of Aβ40 in conditioned media (Aβ40; day 3): no significant changes | levels of Aβ40 in conditioned media (Aβ40; day 6, compared to negative control): significant decrease | levels of Aβ40 in conditioned media (Aβ40; day 9, compared to negative control): significant decrease | Aβ40 levels in the conditioned media (Aβ40; 1-4 μM for up to 12 days): a decrease in its levels | cellular toxicity (LDH) [5]: not affected; also recorded: no toxicity | water maze learning (Fisher 344 rats): improved water maze learning | aggressive behavior (latency to attack the intruder) (APP/PS1 and NT mice [6]; APP/PS1 mice): not significantly modified | aggressive behavior (APP/PS1 and NT mice [6]; NT mice): did not increase | horizontal activity (distance traveled) (APP/PS1 and NT mice [7]): did not significantly affect | vertical activity (rearing) (APP/PS1 and NT mice [7]): did not significantly affect
